From patent US20250250227A1, “AMINO LIPID COMPOUND, PREPARATION METHOD THEREFOR, COMPOSITION THEREOF AND USE THEREOF” (SHENZHEN SHENXIN BIOTECHNOLOGY CO., LTD., priority 2022, published 2025)

Tests used:
[1] = test system: Female BALB/c mice; assay: Performance evaluation of in vivo delivery of Fluc mRNA lipid nanoparticle (IVIS, body and organs); conditions: Fluc mRNA LNP; for Liver (fluorescence expression intensity) / Spleen (fluorescence expression intensity): 75 μL IV; for Liver (fluorescence expression intensity) / Spleen (fluorescence expression intensity) / Total flux (fluorescence expression intensity) / (Spleen/Total Flux) * 100%: 6 hours after injection; for Liver (fluorescence expression intensity) / Spleen (fluorescence expression intensity) / Total flux (fluorescence expression intensity): IVIS; for Total flux (fluorescence expression intensity): 75 μL tail vein injection (IV); for (Spleen/Total Flux) * 100% / Multiple of spleen delivery/total delivery to amino lipid compound 118: IV; for Multiple of spleen delivery/total delivery to amino lipid compound 118: relative to amino lipid compound 118
Method: Animal preparation: Female BALB/c mice of 6-8 weeks old were selected and raised in an SPF grade breeding room. Animal testing was conducted in strict accordance with the guidelines of national health institutions and animal ethics requirements.
In vivo Delivery: prior to injection of the test LNP formulations, the LNP formulations were gently and repeatedly inverted to thoroughly mix the formulation samples. A corresponding amount of the formulation samples were aspirated with a 1 ml insulin syringe, and the LNP formulations were injected by tail vein injection (IV), with 3 mice in duplicate per formulation. Each mouse was injected with 75 μL of the luciferase mRNA (Fluc mRNA)-encapsulating lipid nanoparticle formulation prepared in Experimental Example 1.
6 hours after injection of LNP formulations, mice were injected with 200 μL D-Luciferin luciferase developing substrate (Catalog No. 122799; Manufacturer: Perkin Elmer). After the substrate was injected, the mice were anesthetized with isoflurane inhalation, and the injection time of luciferase developing substrate was recorded.
The encapsulation efficiency of the lipid nanoparticle encapsulating luciferase mRNA (Fluc mRNA) with a representative amino lipid compound and the fluorescence expression intensity induced by the same are shown in Table 4, with the amino lipid compound 118 as a control.
The multiple of spleen delivery/total delivery of fluorescence expression intensity induced by lipid nanoparticle encapsulating luciferase mRNA (Fluc mRNA) with a representative amino lipid compound to amino lipid compound 118 is shown in Table 5.

[2] = Preparation and characterisation of mRNA-encapsulating lipid nanoparticle (encapsulation efficiency, particle size); format: physicochemical; conditions: LNP encapsulating Fluc mRNA; Lipid:DSPC:CHO-HP:M-DMG-2000 48:10:40.5:1.5
Method: A specified amount of Fluc mRNA stock solution, 0.2 M sodium acetate buffer, and DEPC water were added to a container, and mixed well to obtain a water phase;
The amino lipid compound of the present disclosure, a helper lipid, a structural lipid, and a PEG-lipid were separately dissolved in absolute ethanol to prepare respective solutions at concentrations of 20 mg/mL, 10 mg/mL, 20 mg/mL, and 25 mg/mL, respectively. The above four solutions were pipetted at a molar ratio of Lipid:DSPC:CHO—HP:M-DMG-2000 of 48:10:40.5:1.5, and mixed well to prepare an alcohol phase. • (2) Encapsulation: The water phase and the alcohol phase were injected into a microfluidic chip at a flow rate of water phase: alcohol phase=12 mL/min: 4 mL/min by using a microfluidic preparation instrument (MPE-L2), and encapsulation was carried out at a flow rate of water phase: alcohol phase=9 mL/min: 3 mL/min to obtain mRNA-encapsulating lipid nanoparticle (mRNA-LNP). • (3) Dialysis: The product of step (2) was loaded in a dialysis bag and placed in a Tris Buffer-8% sucrose solution for replacement to remove ingredients such as residual ethanol, unassembled lipids. Dialysis was conducted for 2 h with magnetic stirring at room temperature and under protection from light (dialysate was replaced every 1 hour). • (4) The product of step (3) was sterilized by passing through a […] microporous membrane, and then packaged.
Lipid nanoparticle formulations encapsulating Fluc mRNA were prepared, with a concentration of Fluc mRNA of 0.2 g/L, a mass ratio of Fluc mRNA to Lipid of 1:10, a particle size of 80-130 nm, and a encapsulation efficiency of 85% or higher.
The encapsulation efficiency of the lipid nanoparticle encapsulating luciferase mRNA (Fluc mRNA) with a representative amino lipid compound and the fluorescence expression intensity induced by the same are shown in Table 4, with the amino lipid compound 118 as a control. […]

Row | SMILES | Liver (fluorescence expression intensity) [1] | Spleen (fluorescence expression intensity) [1] | Total flux (fluorescence expression intensity) [1] | (Spleen/Total Flux) * 100% [1] [%] | Multiple of spleen delivery/total delivery to amino lipid compound 118 [1] | Encapsulation efficiency [2] [%]
1 | CC/C=C\CCOC(=O)CCCN(CCCN(C)C)C(=O)OC(CCCCCCCCC(=O)OC(CCCCCC)CCCCCC)CCCCCCCCC(=O)OC(CCCCCC)CCCCCC [Compound 277] | 7.98E+07 | 8.42E+06 | 3.14E+08 | 2.68 | 7.89 | 91.00
2 | CCCCCCC(CCCCCC)OC(=O)CCCCCCCCC(CCCCCCCCC(=O)OC(CCCCCC)CCCCCC)OC(=O)N(CCCCC)CCCN(C)C [Compound 108] | 6.84E+07 | 1.02E+06 | 3.40E+08 | 0.30 | 0.88 | 91.78
3 | CCCCCCC(CCCCCC)OC(=O)CCCCCCCCC(CCCCCCCCC(=O)OC(CCCCCC)CCCCCC)OC(=O)N(CCCCCC(=O)OCC)CCCN1CCCC1 [Compound 365] | 9.03E+07 | 4.45E+06 | 6.73E+08 | 0.66 | 1.94 | 92.45
4 | CCCCCCC(CCCCCC)OC(=O)CCCCCCCCC(CCCCCCCCC(=O)OC(CCCCCC)CCCCCC)OC(=O)N(CCCC(=O)OC(C)CCC)CCCN(C)C (stereo not drawn) [Compound 309] | 4.90E+07 | 3.44E+06 | 3.69E+08 | 0.93 | 2.74 | 91.62
5 | CC/C=C\COC(=O)CCCCCN(CCCN(C)C)C(=O)OC(CCCCCCCCC(=O)OC(CCCCCC)CCCCCC)CCCCCCCCC(=O)OC(CCCCCC)CCCCCC [Compound 284] | 3.29E+07 | 5.20E+06 | 3.42E+08 | 1.52 | 4.47 | 91.63
6 | CC/C=C\COC(=O)CCCN(CCCN(C)C)C(=O)OC(CCCCCCCCC(=O)OC(CCCCCC)CCCCCC)CCCCCCCCC(=O)OC(CCCCCC)CCCCCC [Compound 275] | 1.23E+08 | 8.84E+06 | 8.16E+08 | 1.08 | 3.19 | 90.61
7 | CCCCCCCC(=O)N(CCCN(C)C)C(CCCCCCCCC(=O)OC(CCCCCC)CCCCCC)CCCCCCCCC(=O)OC(CCCCCC)CCCCCC [Compound 118, reference compound] | 1.88E+08 | 2.19E+06 | 6.46E+08 | 0.34 | 1.00 | 90.53
8 | CCCCCCCN(CCCN(C)C)C(=O)OC(CCCCCCCCC(=O)OC(CCCCCC)CCCCCC)CCCCCCCCC(=O)OC(CCCCCC)CCCCCC [Compound 110] | 5.83E+07 | 8.71E+05 | 2.44E+08 | 0.36 | 1.05 | 90.82
9 | CCCCCCC(CCCCCC)OC(=O)CCCCCCCCC(CCCCCCCCC(=O)OC(CCCCCC)CCCCCC)OC(=O)N(CCCN(C)C)CC(=O)OC(CC)CCCCC (stereo not drawn) [Compound 338] | 1.07E+08 | 3.20E+06 | 6.32E+08 | 0.51 | 1.49 | 91.13
10 | CCCCCCC(CCCCCC)OC(=O)CCCCCCCCC(CCCCCCCCC(=O)OC(CCCCCC)CCCCCC)OC(=O)N(CCCN(C)C)CCC(=O)OC(C)C [Compound 316] | 1.26E+08 | 2.03E+07 | 8.16E+08 | 2.49 | 7.32 | 90.67
11 | CCCCCCC(CCCCCC)OC(=O)CCCCCCCCC(CCCCCCCCC(=O)OC(CCCCCC)CCCCCC)OC(=O)N(CCCCC(=O)OC(C)CCCC)CCCN(C)C (stereo not drawn) [Compound 305] | 9.19E+07 | 7.03E+06 | 6.71E+08 | 1.05 | 3.08 | 90.70
12 | CCCCCCCOC(=O)CN(CCCN(C)C)C(=O)OC(CCCCCCCCC(=O)OCC(CCCC)CCCCCC)CCCCCCCCC(=O)OCC(CCCC)CCCCCC (stereo not drawn) [Compound 375] | 1.55E+08 | 7.63E+06 | 4.06E+08 | 1.88 | 5.53 | 94.18
13 | CCCCCCC(CCCCCC)OC(=O)CCCCCCCCC(CCCCCCCCC(=O)OC(CCCCCC)CCCCCC)OC(=O)N(CCCCC(=O)OC(CC)CC)CCCN(C)C [Compound 304] | 1.06E+08 | 1.48E+07 | 5.18E+08 | 2.86 | 8.40 | 92.03
